Assay results as given in patent US20230052528A1 (priority 2019, published 2023).
Like-named read-outs stand apart in the source and are kept apart here.

Tests used:
[1] = biological target: T1, wildtype Taspase1 (split Tasp1 WT) (Homo sapiens, UniProt Q9H6P5); experiment: biochemical
T1 sequence (Q9H6P5 1-233): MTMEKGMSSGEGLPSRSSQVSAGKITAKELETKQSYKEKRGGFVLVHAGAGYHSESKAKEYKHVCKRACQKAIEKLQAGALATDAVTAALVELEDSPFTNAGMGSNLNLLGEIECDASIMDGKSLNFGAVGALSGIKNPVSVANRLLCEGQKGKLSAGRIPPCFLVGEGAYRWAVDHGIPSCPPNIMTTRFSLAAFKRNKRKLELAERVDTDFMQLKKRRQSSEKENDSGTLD
T1 sequence (Q9H6P5 234-420): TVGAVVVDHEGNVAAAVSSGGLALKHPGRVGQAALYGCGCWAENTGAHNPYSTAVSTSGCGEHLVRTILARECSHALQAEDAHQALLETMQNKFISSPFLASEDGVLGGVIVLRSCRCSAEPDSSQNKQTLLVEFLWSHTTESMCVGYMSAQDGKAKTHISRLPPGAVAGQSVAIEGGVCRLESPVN
Description: (§1) FIGS. 4A-4B. […] “Taspase1 IC50 (FAM)”=inhibition of cleavage of a Taspase1 peptide substrate; detected by fluorescence resonance energy transfer (FRET). “6.6 mM GSH added”=same assay, in the presence of 6.6 mM glutathione (GSH). […] “Ki”=Ki determined by kinact/Ki measurements, using the Taspase1/FRET-peptide assay described above.
To extend that assay, compounds are also tested in the presence of 6.6 mM GSH as a non-specific, but physiologically relevant, thiol competitor.

Taspase1 = biological target: T2, Taspase1 (Homo sapiens, UniProt Q9H6P5); experiment: biochemical
T2 sequence (Q9H6P5 1-233): T1 sequence (Q9H6P5 1-233)
T2 sequence (Q9H6P5 234-420): T1 sequence (Q9H6P5 234-420)
Description: as §1
Ki is the binding constant that describes the energy of association for the non-covalent portion of the molecule. Kinact is the rate at which the covalent bond is formed between the small molecule and the protein.

PC9 lung cancer cells = experiment: Cell viability (CellTiter-Glo), PC9; assay type: cell-based
H1975 lung cancer cells = experiment: Cell viability, H1975; assay type: cell-based; conditions: Homo sapiens
[2] = test system: MDA-MB-231 triple-negative breast cancer cells; experiment: Cell viability, MDA-MB-231; assay type: cell-based; conditions: Homo sapiens
H522 lung cancer cells = experiment: Cell viability, H522; assay type: cell-based; conditions: Homo sapiens
HSAEC 1-KT cells = experiment: Cell viability, HSAEC 1-KT; assay type: cell-based; conditions: read-out: IC50 (μM) HSAEC 1-KT (Lung)
PC3 prostate cells = experiment: Cell viability, PC3; assay type: cell-based; conditions: read-out: IC50 (μM) PC3 (Prostate)
[3] = test system: PC9, H1975, H522, HSAEC 1-KT, MDA-MB-231 and PC3 cell lines; experiment: Cell viability, statements over all cell lines studied; assay type: cell-based; conditions: for EC50: read-out: EC50
split Tasp1 WT = biological target: T3, split Tasp1 WT (Homo sapiens, UniProt Q9H6P5); experiment: LC-MS tethering dose-response (DR50) assay; assay type: binding; conditions: relative to the other shouldered piperazine analogs
T3 construct: residues 1-233 (alpha domain) in Multiple Cloning Site-1 (MCS-1); residues 234-420 (beta domain) in MCS-2; His6 (TEV-cleavable) (N, cleaved yes); made in house; host or cells: E. coli Rosetta2(DE3)
T3 sequence (Q9H6P5 1-233): T1 sequence (Q9H6P5 1-233)
T3 sequence (Q9H6P5 234-420): T1 sequence (Q9H6P5 234-420)

[4] = Stability of shouldered triazole compound (method not described)
[5] = Biochemical IC50 (nM) +6.6 mM GSH, Table 1, +6.6 mM GSH, 3FAM/QXL520 fluorescent dyes
[6] = Biochemical IC50 (nM) no GSH, Table 1, no GSH, 3FAM/QXL520 fluorescent dyes
[7] = WT IC50 (nM) 6.6 mM GSH, Table 1a, 6.6 mM GSH, average ± std dev
[8] = WT IC50 (nM) No GSH, Table 1a, no GSH, average ± std dev
[9] = read-out: kinact (s^−1), Table 1
[10] = read-out: kinact (s^−1), Table 1a
[11] = Table 2a cytotoxicity, read-out: IC50 (μM) PC9 (Lung)
[12] = NCI-H1975, read-out: IC50 (μM) H1975 (Lung), Table 2a cytotoxicity
[13] = MDA-MB-231, Table 2a cytotoxicity, read-out: IC50 (μM) MDA-MB-231 (Breast)
[14] = NCI-H522, Table 2a cytotoxicity, read-out: IC50 (μM) H522 (Lung)
[15] = NCI-H1975, read-out: H1975 [Lung] (uM), Table 2
[16] = MDA-MB-231, Table 2, read-out: MDA-MB-231 [Breast]

Structure (SMILES): C=CS(=O)(=O)N1CCN(Cc2ccc(OC(F)(F)F)c(F)c2)[C@@H](CCO)C1 [SMDC069, 2-[(2S)-4-(ethenesulfonyl)-1-{[3-fluoro-4-(trifluoromethoxy)phenyl]methyl}piperazin-2-yl]ethan-1-ol]
- IC50 [1, 5]: 273 nM
- IC50 [1, 6]: 17 nM
- IC50 ([1]; IC50 vs split Tasp1 WT): ~20 nM
- IC50 [1, 7]: 273 ± 68 nM
- IC50 [1, 8]: 25 ± 16 nM
- Ki (Taspase1; Ki (uM), Table 1): 23.2 µM
- Ki (Taspase1; Ki (μM), Table 1a): 33 µM
- kinact (Taspase1; [9]): 0.082 s⁻¹
- kinact (Taspase1; [10]): 0.112 s⁻¹
- IC50 (PC9 lung cancer cells; 72 h, FIG. 3B, read-out: IC50, reduced viability of EGFR mutant PC9 lung cancer cells): ~2 µM
- IC50 (PC9 lung cancer cells; [11]): 3.9 ± 2.6 µM
- IC50 (H1975 lung cancer cells; [12]): 3.6 ± 2.2 µM
- IC50 [2, 13]: 6 ± 4.1 µM
- IC50 (H522 lung cancer cells; [14]): 2 µM
- IC50 (HSAEC 1-KT cells; Table 2a cytotoxicity): 3.2 µM
- IC50 (PC3 prostate cells; Table 2a cytotoxicity): 3.4 µM
- EC50 [3]: 2 to 6 µM

Structure (SMILES): C=CS(=O)(=O)N1CCN(Cc2ccc(OC(F)(F)F)c(F)c2)[C@@H](COCc2cn[nH]c2)C1 [SMDC203, (R)-2-(((1H-pyrazol-4-yl)methoxy)methyl)-1-(3-fluoro-4-(trifluoromethoxy)benzyl)-4-(vinylsulfonyl)piperazine]
- IC50 [1, 5]: 237 nM
- IC50 [1, 6]: 22 nM
- IC50 ([1]; IC50 vs split Tasp1 WT): ~20 nM
- IC50 [1, 7]: 237 ± 40 nM
- IC50 [1, 8]: 32 ± 18 nM
- Ki (Taspase1; Ki (uM), Table 1): 27.7 µM
- Ki (Taspase1; Ki (μM), Table 1a): 45 µM
- kinact (Taspase1; [9]): 0.048 s⁻¹
- kinact (Taspase1; [10]): 0.061 s⁻¹
- IC50 (PC9 lung cancer cells; Table 2, read-out: PC9 [Lung]): 10.5 µM
- IC50 (PC9 lung cancer cells; [11]): 10.3 ± 0.3 µM
- IC50 (H1975 lung cancer cells; [15]): 8.1 µM
- IC50 (H1975 lung cancer cells; [12]): 9.6 ± 1.5 µM
- IC50 [2, 16]: ~13 µM
- IC50 [2, 13]: 15.5 ± 2.5 µM
- IC50 (PC3 prostate cells; Table 2a cytotoxicity): 15 µM
- EC50 [3]: 9.6 to 15.5 µM

Structure (SMILES): CN(C)CCSSCCCC(=O)NCc1ccc(OC(F)(F)F)cc1 [SMDC208, 4-{[2-(dimethylamino)ethyl]disulfanyl}-N-{[4-(trifluoromethoxy)phenyl]methyl}butanamide]
- IC50 ([1]; IC50 vs split Tasp1 WT): 30300 nM

Structure (SMILES): C=CS(=O)(=O)N1CCN(Cc2ccc(OC(F)(F)F)c(F)c2)[C@@H](CN2CCS(=O)(=O)CC2)C1 [SMDC275, 4-{[(2S)-4-(ethenesulfonyl)-1-{[3-fluoro-4-(trifluoromethoxy)phenyl]methyl}piperazin-2-yl]methyl}-1λ^6-thiomorpholine-1,1-dione]
- IC50 [1, 5]: 420 nM
- IC50 [1, 6]: 27 nM
- IC50 ([1]; IC50 vs split Tasp1 WT): ~20 nM
- IC50 [1, 7]: 420 ± 80 nM
- IC50 [1, 8]: 38 ± 16 nM
- binding affinity in the tethering assay (split Tasp1 WT): enhanced binding affinity
- IC50 (PC9 lung cancer cells; Table 2, read-out: PC9 [Lung]): 3.5 µM
- IC50 (PC9 lung cancer cells; [11]): 3.5 µM
- IC50 (H1975 lung cancer cells; [15]): 2.6 µM
- IC50 (H1975 lung cancer cells; [12]): 2.6 µM
- IC50 [2, 16]: 4.3 µM
- IC50 [2, 13]: 4.3 µM

Structure (SMILES): C=CS(=O)(=O)N1CCN(Cc2ccc(OC(F)(F)F)c(F)c2)[C@@H](COCc2c[nH]nn2)C1 [SMDC556, (R)-2-(((1H-1,2,3-triazol-4-yl)methoxy)methyl)-1-(3-fluoro-4-(trifluoromethoxy)benzyl)-4-(vinylsulfonyl)piperazine]
- stability [4]: too unstable

Structure (SMILES): CN(C)CCSSCCCNC(=O)Cc1ccc(OC(F)(F)F)cc1 [SMDC673, N-(3-{[2-(Dimethylamino)ethyl]disulfanyl}propyl)-2-[4-(trifluoromethoxy)phenyl]acetamide]
- IC50 ([1]; IC50 vs split Tasp1 WT): 11300 nM

Structure (SMILES): C=CS(=O)(=O)N1CCN(Cc2ccc(OC(F)(F)F)c(F)c2)CC1 [SMDC689, 1-(Ethenesulfonyl)-4-{[3-fluoro-4-(trifluoromethoxy)phenyl]methyl}piperazine]
- IC50 [1, 5]: 661 nM
- IC50 [1, 6]: 51 nM
- IC50 ([1]; IC50 vs split Tasp1 WT): 51 nM
- IC50 [1, 7]: 661 ± 152 nM
- IC50 [1, 8]: 51 ± 47 nM
- Ki (Taspase1; Ki (uM), Table 1): 32.9 µM
- Ki (Taspase1; Ki (μM), Table 1a): 45.8 ± 13.4 µM
- kinact (Taspase1; [9]): 0.028 s⁻¹
- kinact (Taspase1; [10]): 0.031 ± 0.003 s⁻¹
- IC50 (PC9 lung cancer cells; [11]): 11 ± 1 µM
- IC50 (H1975 lung cancer cells; [12]): 17.6 ± 8.3 µM
- IC50 [2, 13]: 16.5 ± 1.5 µM
- IC50 (H522 lung cancer cells; [14]): 20 ± 10 µM
- IC50 (HSAEC 1-KT cells; Table 2a cytotoxicity): 13 µM
- IC50 (PC3 prostate cells; Table 2a cytotoxicity): 15 µM

Structure (SMILES): C=CS(=O)(=O)NCCCc1ccc(OC(F)(F)F)cc1 [SMDC714]
- IC50 ([1]; IC50 vs split Tasp1 WT): 16000 nM

Structure (SMILES): C=CS(=O)(=O)N1CCN(Cc2cccc(OC(F)(F)F)c2)CC1 [SMDC723, 1-(3-(Trifluoromethoxy)benzyl)-4-(vinylsulfonyl)piperazine]
- IC50 ([1]; IC50 vs split Tasp1 WT): 40000 nM
- IC50 (PC9 lung cancer cells; Table 2, read-out: PC9 [Lung]): ~22 µM
- IC50 (PC9 lung cancer cells; read-out: IC50 (μM) PC9 (Lung), Table 2a cytotoxicity): 25.8 ± 2.7 µM
- IC50 (H1975 lung cancer cells; [15]): ~20 µM
- IC50 (H1975 lung cancer cells; [12]): 27.8 ± 5.6 µM
- IC50 [2, 16]: ~37 µM
- IC50 ([2]; MDA-MB-231, read-out: IC50 (μM) MDA-MB-231 (Breast), Table 2a cytotoxicity): 37 µM
- IC50 (H522 lung cancer cells; NCI-H522, read-out: IC50 (μM) H522 (Lung)): 24.4 ± 1.7 µM
- IC50 (HSAEC 1-KT cells): ~32 µM
- IC50 (PC3 prostate cells): ~28 µM
- IC50 ([3]; all cell lines studied, read-out: IC50 against cell lines studied): > 20 µM

Structure (SMILES): C#CCOC[C@H]1CN(S(=O)(=O)C=C)CCN1Cc1ccc(OC(F)(F)F)c(F)c1 [SMDC883, (2R)-4-(ethenesulfonyl)-1-{[3-fluoro-4-(trifluoromethoxy)phenyl]methyl}-2-[(prop-2-yn-1-yloxy)methyl]piperazine]
- IC50 [1, 5]: 340 nM
- IC50 [1, 6]: 26 nM
- IC50 ([1]; IC50 vs split Tasp1 WT): ~20 nM
- IC50 [1, 7]: 340 ± 30 nM
- IC50 [1, 8]: 26 ± 8 nM
- Ki (Taspase1; Ki (uM), Table 1): 64.3 µM
- Ki (Taspase1; Ki (μM), Table 1a): 87 µM
- kinact (Taspase1; [9]): 0.037 s⁻¹
- kinact (Taspase1; [10]): 0.045 s⁻¹

Structure (SMILES): C=CS(=O)(=O)N1CCN(Cc2ccc(OC(F)(F)F)cc2)CC1 [SMDC967, 1-(ethenesulfonyl)-4-{[4-(trifluoromethoxy)phenyl]methyl}piperazine]
- IC50 [1, 6]: 168 nM
- IC50 ([1]; IC50 vs split Tasp1 WT): 114 nM
- IC50 [1, 8]: 168 ± 54 nM
- Ki (Taspase1; Ki (uM), Table 1): 6.02 µM
- Ki (Taspase1; Ki (μM), Table 1a): 30 µM
- kinact (Taspase1; [9]): 0.011 s⁻¹
- kinact (Taspase1; [10]): 0.004 s⁻¹
